Data set [1] in a line: Singlet oxygen sensor green (SOSG) fluorescence measurements. The following applies: for SOSG fluorescence emission at 525 nm: dye 0.1 mg/mL, 810 nm, 200 mW, 488 nm excitation. Type of data set: physicochemical. Here is the method: Singlet oxygen sensor green (SOSG) is a common reagent for measuring singlet oxygen generation in aqueous systems. The marker becomes more fluorescent as singlet oxygen is generated. All time measurements were done in triplicate (100 μL aliquots from an irradiated sample). A Molecular Devices Flexstation was used to read out the fluorescence measurements with the excitation/emission at 488/525 nm.
SOSG fluorescence turn on was initially measured using riboflavin as a point of comparison for the efficacy of ICG irradiations. Measurements used a dye concentration of 0.1 mg/mL and the irradiation the parameters (3 mW at 365 nm) used in the FDA approved procedure for keratoconus (corneal expansion). The mixture was stirred during irradiation.
Stocks of the ICG formulations (both H2O and D2O) were made to be 1 mg/mL ICG and 0.01% benzalkonium chloride (BAC). These were diluted to a dye concentration of 0.1 mg/mL for the SOSG tests with no adjustments for the BAC. The sample was irradiated with 810 nm light at 200 mW and stirred throughout the irradiation.

The next data set relates to bovine gelatin. Kind of data set: Young's Modulus measurement (Instron) of irradiated bovine gelatin strips. The note with it: bovine gelatin 25% wt, ICG 1 mg/mL, TEOA 90 mM; 810 nm 200 mW LED; 3 and 5 minute irradiations compiled. Here is the method: All Young's Modulus values were determined using an Instron equipped with screw side action tensile grips and a load cell rated for max 100 N. Rates of pulling were between 3 mm/minute and 5 mm/minute. The software calculated the Young's Modulus from the force vs. distance/time.
Bovine gelatin sheets were made by heating the gelatin in Dulbecco's buffer to 75° C. for 30 minutes in order to dissolve the dried gelatin and make a viscous solution. Neat TEOA and a concentrated stock solution of ICG in deionized water were added to make the final concentrations: bovine gelatin=25% wt, TEOA=90 mM, and ICG=1 mg/mL. This solution was pipetted hot into a plexiglass mold with a Teflon spacer to form a sheet of the following dimensions: 14 cm×6 cm×1 mm. It was stored overnight in a 4° C. refrigerator to solidify. Twelve 1 cm×6 cm strips were cut from the solidified gel for triplicate analysis of 4 conditions: no irradiation, 3 minute, 5 minute, and 10 minute irradiations. An 810 nm 200 mW LED (Thor Labs) was used for treatment of the gel strip. The LED with a collimator produced a 1 cm×1 cm irradiation area, which was used to treat 1 cm portions of the gelatin strip at a time. For example, an initial irradiation was applied for 3 minutes on 1 cm of the gel, then the gel was shifted 1 cm to a new, untreated portion. […]

A short description of data set [2]: Singlet oxygen generation by DPBF decay (UV-Vis), 810 nm LED. It is filed as physicochemical. The source says:
To evaluate the efficiency of singlet oxygen generation by ICG and an analog (IR-820) in vitro, the singlet oxygen generation was monitored. 1,3-diphenylisobenzofuran (DPBF), a compound that decays in the presence of singlet oxygen, and singlet oxygen sensor green (SOSG), a dye that increases fluorescence in the presence of singlet oxygen, were used as markers to indicate singlet oxygen generation by ICG and IR-820. […] For SOSG analysis, the fluorescence turn-on in H2O and D2O was compared to that observed when riboflavin—an FDA approved dye used in conjunction with UV light to treat keratoconus (corneal expansion)—was usedIn all cases, an increase in fluorescence emission at 525 nm was observed (using a 488nm excitation).

A short description of data set [3]: Dye solubility observations. Type of data set: physicochemical. Here is the method:
ICG is a NIR-absorbing heptamethine dye that has the potential of generating singlet oxygen upon irradiation and has a λmax ranging from 780-810 nm depending on the context. […] BAC along with other cationic surfactants (alkyl ammonium salts, polyoxyethylene alkyl amines, amide linked alkyl amines, alkyl imidazolines, etc.) aid in the solubility of the dye in aqueous media. […] The standard formulation used in these studies consisted of 0.05 to 5.0 mg/mL ICG and 0.01% to 0.001% BAC in solution. D2O was selected as the solvent to increase the lifetime of singlet oxygen and therefore the crosslinking capability of the species. […] Fluorinated solvents (perfluorohexane, perfluorotripentylamine, etc.) are also of interest due to their ability to dissolve more oxygen and their robust inertness.

Each structure is given as a SMILES string.

For `CC1(C)C(/C=C/C=C/C=C/C=C2\N(CCCCS(=O)(=O)O)c3ccc4ccccc4c3C2(C)C)=[N+](CCCCS(=O)(=O)[O-])c2ccc3ccccc3c21` [ICG, indocyanine green], the “SOSG fluorescence emission at 525 nm” value was “large increase in fluorescence activation” in data set [1] (D2O) and “increase” in data set [1] (H2O). In data set [1] (only in the presence of D2O), the “singlet oxygen generation (SOSG turn-on) relative to riboflavin” value is on record as “efficient enough to compete with the turn-on observed in the presence of riboflavin”. For the same molecule, in the data set on bovine gelatin, the “increase of the Young's Modulus, irradiated vs non-irradiated sample” value is 26%. The “ICG and DPBF signal (UV-Vis) upon irradiation” value in data set [2] (810 nm, 375 mW LED, in water) is given as “decrease”. Also, the “singlet oxygen generation (DPBF analysis)” value in data set [2] (in H2O or D2O) was “singlet oxygen generation was observed”. Moreover, the “solubility in aqueous media” value in data set [3] (BAC compared with sodium iodide) is recorded as “greater increases in solubility”; in data set [3] (with BAC and other cationic surfactant additives) it was “enhanced solubility”.
